Reference: patent US10736912B2, “Compositions containing PUFA and/or uridine and methods of use thereof” (MASSACHUSETTS INSTITUE OF TECHNOLOGY, priority 2005, dated 2020)

Key:
brain CDP-choline levels = test: Brain CDP-choline and CDP-ethanolamine levels in gerbils; type: in vivo, gerbil; conditions: 28 days
Source text: FIGS. 5A and 5B. FIG. 5A illustrates the effect Effects of DHA on brain CDP-choline levels (FIG. 5A) and while FIG. 5B illustrates the effect of DHA on brain CDP-ethanolamine levels (FIG. 5B). Groups of 8 gerbils received either a control or a UMP-containing diet, and, by gavage, DHA (in a vehicle of 5% gum Arabic solution) or 5% gum Arabic solution alone for 28 days. On the 29th day brains were harvested and assayed for CDP-choline. Data are presented as means±SEM. Statistical analysis was performed using one- or two-way ANOVA followed by Tukey test. a: P<0.05 when compared with the values for control diet plus vehicle group; b: P<0.05 when compared with values for UMP diet plus vehicle group.
Aliquots (2 ml) of the upper (aqueous) phase were dried under a vacuum, reconstituted, and injected into an HPLC. The dried samples were reconstituted in 100-200 μl water and were analyzed by HPLC on an anion exchange column (Alltech Hypersil APS-2, […], 250×4.6 mm). CDP-choline was eluted with a linear gradient of buffers A (H3PO4, 1.75 mM, pH 2.9) and B (NaH2PO2, 500 mM, pH 4.5) from 0 to 100% B over period of 30 min. With this system, CDP-choline was resolved from closely co-eluting substances such as UMP in an isocratic system over a period of 40 min. The retention time for CDP-choline was 9.5 min. The column was washed with buffer B at the end of each experiment and every several days to remove retained nucleotides. Individual nucleotide peaks were detected by UV absorption at 280 nm and were identified by comparison with the positions of authentic standards, as well as by the addition of nucleotide standards to samples.
To determine the effect of PUFA administration on CDP-choline levels, brain CDP-choline levels were measured in the animals from the previous Example. Administration of DHA and/or UMP decreased CDP-choline levels (FIG. 5A) and CDP-ethanolamine levels (FIG. 5B). DHA reduced CDP-choline levels by 26% (compared with those receiving just the control diet and DHA's vehicle), and in UMP-treated gerbils by 21% (compared with those receiving UMP-containing diet and DHA's vehicle) (both P<0.05).

Rat hippocampal cells = test: 14C-choline incorporation into PC in cultured hippocampal neurons; type: cell-based; conditions: DHA+choline pre-treatment; 14C-choline 2 h; FIG. 10
Experimental: Rat hippocampal cells were cultured for 3 weeks in Neutrobasal plus B27 medium, to reach full maturation. On the day of the experiment, cells were incubated with DMEM+choline, with or without added DHA. ^14C-choline was added, cells were incubated for an additional 2 h, and newly-formed ^14C-labeled PC was extracted and measured as described in Example 1.
To determine the effect of DHA on phospholipids in neurons in short-term culture, neurons were pre-treated with DHA+choline. […] These findings confirm that DHA increases phospholipid levels in brain and neural cells.

PC-12 cells = test: 14C-choline incorporation into phospholipids in PC-12 cells; type: cell-based
Experimental: PC-12 cells were maintained in Dulbecco's modified Eagle's medium (DMEM)+10% fetal bovine serum (FBS). For experiments, cells were grown in quintuplicate collagen-coated 35 millimeter (mm) dishes. Cells were incubated for 18 hours (hr) in serum-free DMEM containing 28 μM choline+/−5 micromolar (μM) of DHA, oleic acid, or palmitic acid. Cells were then labeled for 2.5 hr with 0.5 microcurie (μCi)/ml ^14C-choline in serum-free DMEM containing 10-micromolar (μM) choline.
Cells were homogenized in 100 volumes of ice-cold deionized water using a tissue degrader (Polytron PT 10-35, Kinematica AG, Switzerland); 1 ml of aliquots were then mixed with 3 ml of chloroform+methanol mixture (2:1 v/v) and vortexed vigorously for 30 seconds. After cooling for 1 h on ice, the mixture was mixed sequentially with 3 ml of chloroform+methanol mixture (2:1 v/v) and 1 ml of ice-cold deionized water. The mixture was vortexed vigorously and allowed to stand overnight in the cold room (18 h). The organic (lower) and aqueous (upper) phases of the mixtures were separated by centrifugation (10 min at 4° C.; 1000 g). An aliquot (2 ml) of the upper phase was used for determination of CDP-Choline (see below), and 0.1-0.4 ml aliquots of the lower phase were dried under vacuum for phospholipid analysis. Residues of 0.1 ml aliquots of the lower phase were assayed for total phospholipid content by measuring phosphorus. Residues of 0.4 ml aliquots of the lower phase were reconstituted in 40 μl methanol and subjected to thin-layer chromatography using silica G plates (Adsorbosil Plus-1®, Alltech), and a system consisting of chloroform/ethanol/triethylamine/water (30:34:30:8) as the mobile phase. Phospholipid standards were used to identify the corresponding bands under UV light after the plates were sprayed with 0.1% diphenylhexatriene in petroleum ether. Bands for individual phospholipid classes (PC, PE, SM, PS and PI) were scraped off the plates and extracted into 1 ml of methanol; dried under vacuum; and assayed for phosphorus content. Total phosphorus was determined by comparison with standard curves by using KH2PO4 run with each assay. […] Absorbance was measured spectrophotometrically at 820 nm. Phospholipid mass was determined by multiplying the phosphorus content by 25.
In order to assess the effect of omega-3 fatty acids on phospholipid synthesis, PC-12 cells were incubated with ^14C-labeled choline, following an 18-hour pre-incubation with or without DHA. Incorporation of label into phospholipids was then measured. […]
To further characterize the stimulation of phospholipid synthesis by omega-3 fatty acids, PC-12 cells were pre-treated with different doses of DHA and exposed to labeled choline as described in Example 1, then incorporation of ^14C-label into phospholipids was measured. […]

CCC=CCC=CCC=CCC=CCC=CCC=CCCC(=O)O [DHA, 4,7,10,13,16,19-docosahexaenoic acid]
CDP-choline levels (FIG. 5A) (brain CDP-choline levels): decreased | CDP-ethanolamine levels (FIG. 5B) (brain CDP-choline levels): decreased | Increase in synthesis of phospholipids relative to cells administered choline alone (Rat hippocampal cells): more than 2 fold | Phosphatidylcholine (PC) synthesis significantly increased (incorporation of 14C label into PC) (PC-12 cells; 5 μM fatty acid, 18 hr pre-incubation, then 14C-choline 2.5 hr, FIG. 1): significantly increased | Augmentation of phospholipid synthesis (PC-12 cells; different doses of DHA, FIG. 2): dose-dependent
